Measurements as given in the supplement of paper PMC10307832.

Experiments:
Experiment in all cases: relative viability (nuclei count vs DMSO), 5 days (fraction); higher = more cells survive
Afatinib + OSI-027 = compound: CN(C)C/C=C/C(=O)Nc1cc2c(Nc3ccc(F)c(Cl)c3)ncnc2cc1O[C@H]1CCOC1 [Afatinib] + COc1cccc2cc(-c3nc([C@H]4CC[C@H](C(=O)O)CC4)n4ncnc(N)c34)[nH]c12 [OSI-027] (partner 0.5 µM)
Summary of the method: (§1)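 Lung cancer cell lines were seeded in 1536-well plates and dosed by pin tool the next day, with either a single drug or a fixed anchor-drug dose combined with five library-drug doses (not always all listed) spaced in √10 steps. Five days later, one step fixed the cells and stained their nuclei (final 0.05% Triton X-100, 1% formaldehyde, 1 ug/ml Hoechst), and nuclei were counted on 4× images. Relative viability is the nuclei count in treated wells divided by the count in vehicle wells, and each value is the median of duplicate plates.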

Afatinib + Crizotinib = compound: CN(C)C/C=C/C(=O)Nc1cc2c(Nc3ccc(F)c(Cl)c3)ncnc2cc1O[C@H]1CCOC1 [Afatinib] + C[C@@H](Oc1cc(-c2cnn(C3CCNCC3)c2)cnc1N)c1c(Cl)ccc(F)c1Cl [Crizotinib] (partner 1 µM)
Summary of the method: as §1

Afatinib + Phenformin = compound: CN(C)C/C=C/C(=O)Nc1cc2c(Nc3ccc(F)c(Cl)c3)ncnc2cc1O[C@H]1CCOC1 [Afatinib] + N=C(N)NC(=N)NCCc1ccccc1 [Phenformin] (partner 250 µM)
Summary of the method: as §1

Afatinib + Trametinib = compound: CN(C)C/C=C/C(=O)Nc1cc2c(Nc3ccc(F)c(Cl)c3)ncnc2cc1O[C@H]1CCOC1 [Afatinib] + CC(=O)Nc1cccc(-n2c(=O)n(C3CC3)c(=O)c3c(Nc4ccc(I)cc4F)n(C)c(=O)c(C)c32)c1 [Trametinib] (partner 0.02 µM)
Summary of the method: as §1

| Cell Line | relative viability (Afatinib + OSI-027; first compound 0.005 µM) | relative viability (Afatinib + OSI-027; first compound 0.01581 µM) | relative viability (Afatinib + OSI-027; first compound 0.05 µM) | relative viability (Afatinib + OSI-027; first compound 0.1581 µM) | relative viability (Afatinib + OSI-027; first compound 0.5 µM) | relative viability (Afatinib + Crizotinib; first compound 0.005 µM) | relative viability (Afatinib + Crizotinib; first compound 0.01581 µM) | relative viability (Afatinib + Crizotinib; first compound 0.05 µM) | relative viability (Afatinib + Crizotinib; first compound 0.1581 µM) | relative viability (Afatinib + Crizotinib; first compound 0.5 µM) | relative viability (Afatinib + Phenformin; first compound 0.005 µM) | relative viability (Afatinib + Phenformin; first compound 0.01581 µM) | relative viability (Afatinib + Phenformin; first compound 0.05 µM) | relative viability (Afatinib + Phenformin; first compound 0.1581 µM) | relative viability (Afatinib + Phenformin; first compound 0.5 µM) | relative viability (Afatinib + Trametinib; first compound 0.005 µM) | relative viability (Afatinib + Trametinib; first compound 0.01581 µM) | relative viability (Afatinib + Trametinib; first compound 0.05 µM) | relative viability (Afatinib + Trametinib; first compound 0.1581 µM) | relative viability (Afatinib + Trametinib; first compound 0.5 µM) |
| --- | --- | --- | --- | --- | --- | --- | --- | --- | --- | --- | --- | --- | --- | --- | --- | --- | --- | --- | --- | --- |
| HCC-366 | 0.947 | 0.965 | 0.969 | 0.824 | 0.788 | 0.746 | 0.643 | 0.554 | 0.428 | 0.476 | 0.588 | 0.61 | 0.611 | 0.632 | 0.595 | 0.361 | 0.247 | 0.353 | 0.293 | 0.29 |
| HCC-827 | 0.159 | 0.122 | 0.153 | 0.153 | 0.141 | 0.169 | 0.176 | 0.184 | 0.184 | 0.21 | 0.137 | 0.119 | 0.152 | 0.119 | 0.137 | 0.16 | 0.165 | 0.179 | 0.161 | 0.15 |
| HOP-62 | 0.947 | 0.835 | 0.826 | 0.933 | 0.827 | 1.04 | 0.883 | 1.11 | 1.05 | 0.969 | 0.862 | 0.561 | 0.748 | 0.719 | 0.629 | 0.354 | 0.38 | 0.419 | 0.333 | 0.378 |
| IA-LM | – | – | – | – | – | 1.12 | 0.728 | 1.04 | 0.74 | 1.11 | – | – | – | – | – | – | – | – | – | – |
| LC-2-ad | 0.871 | 0.67 | 0.823 | 0.575 | 0.622 | 0.566 | 0.422 | 0.409 | 0.382 | 0.408 | 0.66 | 0.514 | 0.585 | 0.541 | 0.52 | 0.954 | 0.914 | 0.92 | 0.832 | 0.87 |
| LCLC-97TM1 | 0.561 | 0.502 | 0.629 | 0.43 | 0.457 | 0.491 | 0.337 | 0.329 | 0.242 | 0.308 | 0.439 | 0.398 | 0.438 | 0.404 | 0.391 | 0.17 | 0.215 | – | 0.153 | 0.171 |
| LCLC-103H | 0.48 | 0.46 | 0.54 | 0.482 | 0.479 | 1 | 1.14 | 1.03 | 0.911 | 1.17 | 0.319 | 0.358 | 0.326 | 0.37 | 0.353 | 0.602 | 0.698 | 0.736 | 0.634 | 0.697 |
| LK-2 | 0.213 | 0.188 | 0.194 | 0.156 | 0.216 | 0.201 | – | 0.195 | 0.234 | 0.243 | 0.471 | 0.306 | 0.422 | 0.488 | 0.574 | 0.908 | 0.846 | 0.633 | 0.78 | 0.73 |
| LOU-NH91 | 0.491 | 0.404 | 0.477 | 0.4 | 0.518 | 0.523 | 0.574 | 0.69 | 0.488 | 0.542 | 0.342 | 0.45 | 0.477 | 0.394 | 0.548 | 0.718 | 0.683 | 0.718 | 0.671 | 0.727 |
| LU99A | 0.294 | 0.297 | 0.295 | 0.287 | 0.292 | 0.591 | 0.54 | 0.539 | 0.55 | 0.525 | 0.837 | 0.851 | 0.891 | 0.944 | 0.828 | 0.635 | 0.569 | 0.589 | 0.509 | 0.552 |
| LXF-289 | 0.82 | 0.606 | 0.62 | 0.602 | 0.67 | 0.845 | 0.777 | 0.793 | 0.7 | 0.811 | 0.492 | 0.521 | 0.534 | 0.468 | 0.471 | 0.702 | 0.716 | 0.616 | 0.613 | 0.647 |
| NCI-H23 | 0.585 | 0.611 | 0.54 | 0.599 | 0.47 | 0.516 | 0.459 | 0.612 | 0.44 | 0.639 | 0.847 | 0.825 | 0.808 | 0.772 | 0.718 | 0.358 | 0.323 | 0.359 | 0.331 | 0.345 |
| NCI-H522 | 0.723 | 0.594 | 0.631 | 0.544 | 0.557 | – | – | – | – | – | 0.729 | 0.584 | 0.643 | 0.532 | 0.698 | 0.58 | 0.781 | 0.79 | 0.667 | 0.545 |
| NCI-H1395 | 0.587 | 0.561 | 0.688 | 0.681 | 0.592 | – | – | – | – | – | 0.476 | 0.41 | 0.447 | 0.442 | 0.449 | 1.13 | 0.832 | 1.09 | 0.911 | 1.06 |
| NCI-H1563 | 0.729 | 0.739 | 0.737 | 0.709 | 0.746 | 0.844 | 0.835 | 0.872 | 0.795 | 0.882 | 0.625 | 0.667 | 0.649 | 0.651 | 0.623 | – | – | – | – | – |
| NCI-H1648 | 0.253 | 0.266 | 0.298 | 0.219 | 0.27 | – | – | – | – | – | – | – | – | – | – | 0.423 | 0.462 | 0.316 | 0.287 | 0.246 |
| NCI-H1703 | – | – | – | – | – | 0.824 | 0.694 | 0.581 | 0.731 | 0.561 | – | – | – | – | – | – | – | – | – | – |
| NCI-H1793 | 0.237 | 0.211 | 0.168 | 0.233 | 0.146 | – | – | – | – | – | 0.244 | 0.316 | 0.325 | 0.273 | 0.321 | 0.436 | 0.377 | 0.432 | 0.345 | 0.401 |
| NCI-H2342 | 0.669 | 0.539 | 0.546 | 0.558 | 0.485 | – | – | – | – | – | 0.641 | 0.488 | 0.575 | 0.519 | 0.477 | 0.761 | 0.723 | 0.726 | 0.74 | 0.672 |
| SW 900 | 0.668 | 0.395 | 0.605 | 0.639 | 0.347 | – | – | – | – | – | 0.642 | 0.499 | 0.682 | 0.486 | 0.399 | 0.572 | 0.657 | 0.759 | 0.745 | 0.581 |
